A value given as a limit tells only on which side of the number the result lay.

In data set [1] the test system is mouse. Briefly: rPvRII specific IgG endpoint titer. In kind it is in vivo. The note with it: MDP-MN 10 μg/mouse.
Data set [2] deals with BALB/c mice. The experiment in a line: TH1:TH2 index from HBsAg specific IgG isotypes. Format: in vivo. The source says: It is known that, IgG subclasses produced after the immunization against given antigen, primarily determines the function of the antibody or indirectly measures the relative contribution of TH1 versus TH2 type cytokine induction. More specifically, production of IgG1 antibodies induces TH2 type cytokines, whereas, production of IgG2a & IgG3 antibodies induces TH1 type cytokines. […] In this context, in the present invention, we determined the levels of IgG isotypes (IgG1, IgG2a & IgG3), raised against HBsAg in the presence or absence of MDP-MN (at 10 & 50 μg/mouse) and calculated TH1: TH2 index then calculated as ([IgG2a+IgG3]/2)/(IgG1). Details of assay protocol as described below as in example 3.1.3. According to such calculation, an index value <1 stands for a TH2 polarization; an index value >1 stands for a TH1 polarization.
Analysis of antigen specific IgG antibody subclasses (isotypes namely IgG1 or IgG2a or IgG3) was performed as mentioned in example 3.1.2, except at one step, where goat anti-mouse IgG1 or IgG2a or IgG3 HRP was used at a dilution of 1:5000 (in place of goat anti-mouse IgG) TH1:TH2 index obtained at 10 & 50 μg/mouse of MDP-MN is as shown in FIG. 5c.

Data set [3] deals with T1, human NOD2 (Homo sapiens, UniProt Q9HC29).
T1 construct: host or cells: HEK 293 (HEK-Blue Human NOD2 reporter cells)
T1 sequence (Q9HC29 whole entry): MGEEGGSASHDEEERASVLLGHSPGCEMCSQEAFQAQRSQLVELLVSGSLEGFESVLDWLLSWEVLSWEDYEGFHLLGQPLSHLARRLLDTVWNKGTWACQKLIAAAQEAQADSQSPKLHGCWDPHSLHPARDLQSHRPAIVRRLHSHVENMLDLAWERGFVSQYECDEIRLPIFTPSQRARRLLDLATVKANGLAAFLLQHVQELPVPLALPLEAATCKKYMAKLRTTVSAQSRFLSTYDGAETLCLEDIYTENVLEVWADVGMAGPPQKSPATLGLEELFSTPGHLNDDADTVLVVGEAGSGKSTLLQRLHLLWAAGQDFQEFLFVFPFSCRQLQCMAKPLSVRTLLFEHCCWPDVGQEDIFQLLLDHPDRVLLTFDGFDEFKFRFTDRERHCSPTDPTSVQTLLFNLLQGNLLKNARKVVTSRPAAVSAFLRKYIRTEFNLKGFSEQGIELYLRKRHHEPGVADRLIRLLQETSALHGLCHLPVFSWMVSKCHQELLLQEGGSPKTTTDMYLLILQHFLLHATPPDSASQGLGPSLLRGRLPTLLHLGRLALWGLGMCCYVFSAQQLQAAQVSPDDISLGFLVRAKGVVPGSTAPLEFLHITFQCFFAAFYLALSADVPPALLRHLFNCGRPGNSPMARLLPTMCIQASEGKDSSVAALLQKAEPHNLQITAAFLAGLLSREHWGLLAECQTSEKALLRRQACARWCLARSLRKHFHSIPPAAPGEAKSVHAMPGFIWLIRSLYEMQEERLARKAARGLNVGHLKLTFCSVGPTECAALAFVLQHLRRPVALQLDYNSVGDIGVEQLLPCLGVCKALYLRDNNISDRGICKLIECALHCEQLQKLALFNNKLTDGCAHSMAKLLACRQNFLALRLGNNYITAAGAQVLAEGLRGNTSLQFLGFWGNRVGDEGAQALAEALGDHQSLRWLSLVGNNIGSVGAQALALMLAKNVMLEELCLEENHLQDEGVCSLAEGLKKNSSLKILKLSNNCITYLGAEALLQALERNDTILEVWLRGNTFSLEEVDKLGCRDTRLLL
Briefly: NOD2 specific reporter assay (SEAP). Format: cell-based. As for the experimental part:
Muramyl dipeptide molecules have the ability to bind to NOD2 receptors that are present on […] the immune cells, so as to stimulate immune response. NOD2 (Nucleotide oligomerization domain) receptor is an intracellular pattern recognition receptor (PRRs) recognizes muramyl dipeptide derivatives and stimulates cascade of signalling pathways to induce immune response. […] These cells were prepared by co-transfection of human NOD2 gene and codon-optimized SEAP (secreted embryonic alkaline phosphatase) reporter gene into HEK 293 cells. Upon stimulation of cells with muramyl dipeptide derivative, NFkB gets activated, which intum secrets SEAP and it was measured in cell supernatant. Experimental details of this in-vitro assay are given as example 2.1.
HEK—Blue Human NOD2 reporter cells (5×10^4/well) were plated and cultured overnight in a humidified CO2 incubator at 37° C. […] Supernatant was collected and treated with Quanti blue detection reagent at 37° C. for 15-30 min. Absorbance was read at 630 nm. Dose response curve generated by plotting concentration of adjuvant on X-axis and % response on the Y-axis is as shown in FIG. 1. To generate dose response curve, highest absorbance shown at tested concentration was taken as 100% response and the least absorbance was taken as 0% response. Effective concentration at 50% (EC50) response was determined from the dose response curve.
On the technique in general: Reporter assays use an easily measured gene product as a stand-in for the process of interest.

For data set [4], the system named is Wistar rats. The experiment in a line: Maximum Tolerated Dose test. Format: in vivo, rat. As to the method:
Wistar rats (n=6, 3M & 3F) were administered intramuscularly (i.m) with MDP-MN containing fixed adjuvant dose of 10, 50 and 100 μg/animal/200 μl in an ascending manner. Animals were observed daily for a period of 14 days for clinical signs & mortality. Body weight was measured daily. Food and water consumed by animals were also monitored daily for any abnormalities & Food and water intake per animal was also calculated. Body temperature was measured for every 4 hours upto 24 hrs, later once in daily upto 7 days and then followed by alternate day upto day 14. Rats were sacrificed on day 14 and organs/tissues such as site of injection, spleen, thymus, brain, lungs, Heart, liver, Kidney were collected and done macroscopic examination. […] It indicates rats are tolerable even at high dose (100 μg/animal). Blood was collected between 24-36 hrs were tested for CRP levels, after the injection. […] Moreover, absence of pro-inflammatory cytokines, CRP levels indicates, MDP-MN is not pyrogenic.

The test system of data set [5] is BALB/c mice. The experiment in a line: HBsAg specific total IgG endpoint titer (ELISA). Format: in vivo. As for the experimental part: Female BALB/c mice (6-8 week old, n=6/group) were vaccinated intramuscularly (i.m, at two quadriceps) on Day 0 & Day 28 with vehicle control or Hepatitis B antigen (20 μg/mouse/dose/100 μl, 50 μl per quadricep) with and without MDP-MN (10 μg or 50 or 100 μg/mouse/dose/100 μl) diluted in Phosphate buffered saline. Prior to immunization, Hepatitis B surface antigen was mixed with MDP-MN, by gentle agitation (1:1 ratio), under sterile conditions. Mice were bled and euthanized on Day 42. Blood was collected & serum was isolated to evaluate analyze antigen specific total IgG antibody titer (as in example 3.1.2) and antibody subclasses (isotypes namely IgG1 or IgG2a or IgG3, as in example 3.1.3).
Serial dilutions of individual serum samples ([…] ranging from 1:50 to 819200) were used to determine the endpoint titer of antigen specific total IgG antibody titer by ELISA. Details of assay protocol as described below.
For analysis of antigen specific antibody titer, hepatitis B surface antigen was suspended in 50 mM carbonate bicarbonate buffer, pH 9.6 and coated at a concentration (1 μg/ml, 100 μl/well) in 96 well plates and kept at 4° C. for overnight. Next day, plates were washed with washing buffer (PBST-Phosphate buffered saline, pH 7.4 with 0.05% Tween) and blocked with blocking buffer (PBS with 1% BSA) at RT for 1-2 hr. ELISA plates were washed again with wash buffer (PBS, 0.05% Tween™20) and added serially diluted (in PBS, 0.1% BSA, 0.05% Tween™20, 0.02% sodium azide) sera from hyper immunized mice and incubated at RT for 1 hr. After incubation, wells were again washed and added Goat Anti-mouse IgG HRP conjugate antibody at a dilution of 1:5000 & incubated for 1 hr at RT. Later, wells were washed, and developed with OPD (O-phenylene diamine) as a substrate for 15 min. Reaction was stopped using 2N H2SO4. Absorbance was read at 490 nm. Threshold (Mean+3SD) was established by taking the absorbance of negative control (PBS) group, followed by the reactive index (ratio of absorbance at a particular dilution & threshold), so as to determine end point titer. […]

As to `C[C@H](NC(=O)[C@@H](C)O[C@H]1[C@H](O)[C@@H](CO)OC(O)[C@@H]1NC(=O)[C@H](O)CO)C(=O)N[C@H](CCC(=O)O)C(N)=O` (stereo partly drawn) [MDP-MN, (4R)-5-amino-4-((2S)-2-((2R)-2-(((3R,4R,5S,6R)-3-((2,3-dihydroxypropanamido))-2,5-dihydroxy-6-(hydroxymethyl)tetrahydro-2H-pyran-4-yl)oxy)propanamido)propanamido)-5-oxopentanoic acid], in data set [1], the “increase of antibody titer vs rPvRII alone” value was 4 fold. The “TH1:TH2 index ([IgG2a+IgG3]/2)/(IgG1)” value in data set [2] (HBsAg in the presence of MDP-MN (10 & 50 μg/mouse)) amounted to 2.5. Further, in data set [2] (mice vaccinated with Hepatitis B surface antigen in presence of MDP-MN), the “TH1 type cytokines induction” value is reported as “induced TH1 type cytokines”. Moreover, the concentration for a half-maximal effect (EC50) in data set [3] (HEK-Blue Human NOD2 reporter cells, SEAP absorbance 630 nm, 24-72 hrs, read-out: EC50 (half maximal response) (converted)) was 2490 nM. Moreover, the “% response” value amounted to 0% in data set [3] (at 0.01 μg/ml, normalized to least absorbance) and 100% in data set [3] (at 10 μg/ml (plateau), normalized to highest absorbance). The tolerated dose in data set [4] (Wistar rats, i.m., 14 days observation, highest dose tested) is on record as 100 μg/animal; in data set [4] (rat, Maximum Tolerated Dose test), at most 100 μg/rat. For the same molecule, in data set [4] (blood 24-36 hrs after injection, high dose (100 μg/animal), normal in rats 200-550 μg/ml), the CRP levels result was “normal”. The “macroscopic examination of organs/tissues” value in data set [4] (day 14, site of injection, spleen, thymus, brain, lungs, heart, liver, kidney) is listed as “No significant lesions or abnormalities”. The clinical signs entry in data set [4] (even at tested high dose (100 μg/animal), 14 days) is reported as “no significant clinical signs”. Moreover, in data set [4] (high dose (100 μg/animal), compared to untreated animals), the weight gain entry is listed as “weight gain is less”. The mortality entry in data set [4] (i.m. 10, 50 and 100 μg/animal, 14 days) is recorded as “no mortality”. Besides, the “pyrogenicity (conclusion from cytokines and CRP levels)” value in data set [4] (rat, in vivo) was “not pyrogenic”. For the same molecule, the body temperature entry in data set [4] (upto 14 days) was “no temperature raise”. Also, the results for the “increase of antibody titer vs HBsAg alone” value in data set [5] (MDP-MN 50 μg/mouse) and in data set [5] (MDP-MN 100 μg/mouse) were 4 fold and 8 fold, respectively. For the same molecule, the “increase of humoral response (TH2)” value in data set [5] (mice vaccinated with Hepatitis B surface antigen in presence of MDP-MN, dose dependent) was 4-8 fold.

One may read the EC50 as the concentration that produces a half-maximal response.
